Reference: patent US20240238195A1, “METHODS AND COMPOSITIONS FOR INHIBITING A NOXIOUS INSULT” (priority 2018, published 2024)
“Also recorded” adds a separate entry of the source.

Legend:
humans = conditions: cited from earlier work
rats [1] = conditions: cited from earlier work
mice = conditions: cited from earlier work
rats [2] = conditions: 191 mg zinc/kg/day as zinc acetate in drinking water for 3 months; cited from earlier work
sheep kidneys = assay: Renal ischaemia-reperfusion injury in sheep (unilateral nephrectomy, 60 min renal ischaemia); type: in vivo; conditions: for ischaemic burden (area under curve, serum creatinine and serum urea): 0.5 mg/kg dosed at 24 hours and 4 hours pre-ischaemia, compared to controls and single 24 hr or 4 hr dosing; for inhibition of ischaemia-reperfusion injury, as measured by serum creatinine and urea levels / adverse effects of ischaemia-reperfusion in sheep kidneys (trend towards higher serum creatinine and urea levels): compared to controls
Description: (§1) Following the 4 hour injection, day 0 blood samples were taken.
Controls (n=4) received a unilateral nephrectomy and were administered saline at 24 hours and 4 hours prior to surgery.
Another group of sheep (n=1) received the Flavonoid based antioxidant (3′,4′ dihydroxyflavonol) at 6.6 mg/kg of body weight 1 hours prior to surgery.
Sheep were anaesthetised prior to surgery with intravenous sodium thiopentone (15 mg/kg) for endotracheal intubation (cuffed tube size 10). Maintenance of anaesthesia was carried out by means of oxygen/air/isoflurane (1.5-2.0%). Fractional inspired oxygen was altered to maintain PaO2 at approximately 100 mmHg, and ventilation was controlled to maintain PaCO2 at approximately 40 mmHg.
Following general anaesthesia, the right kidney was removed. A flow probe (4 mm) was implanted into the left kidney and the renal hilum (arteries and veins) supplying blood to the kidney were clamped using a vascular clamp for 60 minutes. […] General anaesthesia was then reversed and the sheep were allowed to recover. Renal blood flow was measured, blood samples were taken daily from the sheep over a 1-week period and the level of urea and creatinine was determined. Blood samples were collected into lithium heparin tubes (Microtainer, Becton-Dickinson). Blood samples were centrifuged and aliquots stored at −20° C. till analysis for creatinine and urea by the Clinical Trials Department, Austin Pathology, Heidelberg, Australia. Creatinine and urea in the blood serum samples were measured on a fully automated Roche Cobas 8000 c702 analyser. The kinetic colorimetric assay for creatinine determination is based on the Jaffé method. The kinetic colorimetric assay for urea is based on hydrolyzation of Urea to ammonium catalysed by urease followed by reaction of ammonium with 2-oxoglutarate in the presence of glutamate dehydrogenase and the coenzyme NADH. The rate of decrease in the NADH concentration is directly proportional to the urea concentration in the specimen and is measured photometrically.
As 0.5 mg/kg had been established as an effective dose to inhibit renal ischemia-reperfusion injury, the dosing experiments above were repeated to investigate the effect of multiple dosing. Sheep were subjected to uninephrectomy and 60 min of renal ischaemia followed by reperfusion. Serum creatinine and serum urea levels were measured before Zn pre-treatment (baseline), before ischaemia (Day 0) and for 7 days after reperfusion. […] Data are expressed as mean±SEM values (n=4, except 24 hr only group, n=1).

pAKT [3] = assay: Phosphorylation of AKT in HK-2 cells (Western blot); type: cell-based, human; conditions: ZnCl2 for 4 hours
Description: (§2) Zn stimulated HIF1α in HK-2 cells.

HIF-3α [4] = assay: HIF-3α protein expression in HK-2 cells (Western blot); type: cell-based, human; conditions: 50 μM ZnCl2, Western blot
Description: as §2

HIF-1α [5] = assay: HIF-1α protein expression in HK-2 cells (Western blot); type: cell-based, human; conditions: 50 μM ZnCl2, Western blot, at 4 hours following exposure, vs controls
Description: as §2

HIF-2α [6] = assay: HIF-2α protein expression in ACHN cells (Western blot); type: cell-based, human; conditions: 50 μM ZnCl2, Western blot, 4 hours
Description: (§3) Zn stimulated HIF1α in ACHN cells.

[7] = Tolerability of intravenous ZnCl2 in sheep; type: in vivo; conditions: 0.1 to 2 mg/kg of body weight i.v. at 24 hours and 4 hours prior to surgery; preliminary results
Description: as §1

pAKT [8] = assay: Phosphorylation of AKT in ACHN cells (Western blot); type: cell-based, human; conditions: ZnCl2 for 4 hours
Description: as §3

HIF-1α [9] = assay: HIF-1α protein expression in ZnCl2-perfused human kidney tissue (Western Blot)
Description: The blood supply to the excised tissue was provided by the renal artery into which the ZnCl2 solution was administered. In an initial study a 25% increase in HIF-1α expression in normal human kidney perfused with Zn compared to saline perfused tissue was observed.

HIF-2α [10] = assay: HIF-2α protein expression in HK-2 cells (Western blot); type: cell-based, human; conditions: 50 μM ZnCl2, Western blot, 4 hours
Description: as §2

HIF-1α [11] = assay: HIF-1α protein expression in ACHN cells (Western blot); type: cell-based, human; conditions: 50 μM ZnCl2, Western blot, at 4 hours following exposure, vs controls
Description: as §3

HIF-3α [12] = assay: HIF-3α protein expression in ACHN cells (Western blot); type: cell-based, human; conditions: 50 μM ZnCl2, Western blot
Description: as §3

[13] = test system: sheep left ventricle myocardium; assay: Myocardial ischaemia-reperfusion in sheep (Evan's blue / TTC staining); type: in vivo
ferrets = conditions: 390 mg zinc/kg of body weight per day as zinc oxide in the diet for 3-13 days; cited from earlier work
[14] = 0.1 mg/kg of body weight i.v. at 24 hours and 4 hours prior to 60 min ischaemia
[15] = 0.5 mg/kg of body weight i.v. at 24 hours and 4 hours prior to 60 min ischaemia

## zinc gluconate
humans; about 2,000-4,000 mg/day of zinc gluconate
  toxic effects: anemia (consistent with zinc-induced copper deficiency), severe nephrosis, nausea, vomiting, dehydration, electrolyte imbalances, dizziness, lethargy and incoordination, epigastric pain and abdominal pain

## CC(=O)[O-].CC(=O)[O-].[Zn+2] [zinc acetate]
Rats [1]
  relative lethality (LD50 ranking): most lethal compound tested
mice
  relative lethality (LD50 ranking): most lethal compound
Rats [2]
  mortality: Mortality has also been observed

## O=c1c(O)c(-c2ccc(O)c(O)c2)oc2ccccc12 [antioxidant, 3′,4′ dihydroxyflavonol, reference compound]
Sheep kidneys; antioxidant 6.6 mg/kg of body weight 1 hours prior to surgery (n=1)
  decrease of ischaemic burden (AUC values for serum creatinine and serum urea): 50%

## zinc sulfate
humans; oral ingestion of zinc sulfate in large amounts (≥30,000 mg)
  outcome of zinc overdose: can result in death

## [Cl-].[Cl-].[Zn+2] [ZnCl2, zinc chloride]
pAKT [3]
  phosphorylation of AKT: stimulated phosphorylation
HIF-3α [4]
  HIF-3α protein expression: not
HIF-1α [5]
  HIF-1α protein expression: increase
HIF-1α [5]; listed as Zinc chloride
  HIF-1α protein expression: enhanced
HIF-1α [5]; listed as Zn
  HIF-1α protein expression: stimulated
HIF-1α [5]; listed as zinc
  HIF-1α protein expression: stimulates
HIF-2α [6]
  HIF-2α protein expression: increase
HIF-2α [6]; listed as zinc
  HIF-2α protein expression: stimulated
[7]
  tolerability / adverse effects: without any adverse effects
pAKT [8]
  phosphorylation of AKT: stimulated phosphorylation
HIF-1α [9]; 50 μM ZnCl2 perfused via segmental renal artery, compared to saline perfused tissue, initial study
  increase in HIF-1α expression: 25%
HIF-1α [9]; zinc chloride preconditioning (50 μM perfusion), Western Blot
  HIF-1α protein expression in human kidney tissue: enhanced
Sheep kidneys; [14]
  serum creatinine levels when compared to controls: marked reduction
  serum urea levels when compared to controls: marked reduction
Sheep kidneys
  ischaemic burden (area under curve, serum creatinine and serum urea): significantly (p<0.05) reduced
Sheep kidneys; listed as zinc
  ischaemic burden (area under curve, serum creatinine and serum urea): reduced significantly
Sheep kidneys; [15]
  serum creatinine levels when compared to controls: marked reduction
  serum urea levels when compared to controls: marked reduction
Sheep kidneys; 0.5 mg/kg zinc, compared to control animals
  reduction of ischaemic burden (AUC values for serum creatinine and serum urea): ~70%
Sheep kidneys; 1.0 mg/kg of body weight
  inhibition of ischaemia-reperfusion injury, as measured by serum creatinine and urea levels: failed to inhibit
Sheep kidneys; 2.5 mg/kg of body weight
  inhibition of ischaemia-reperfusion injury, as measured by serum creatinine and urea levels: failed to inhibit
Sheep kidneys; 2.5 mg/kg of body weight, listed as ZnCl
  adverse effects of ischaemia-reperfusion in sheep kidneys (trend towards higher serum creatinine and urea levels): appeared to worsen
Sheep kidneys; 2.5 mg/kg of body weight, listed as zinc
  adverse effects of ischaemia-reperfusion in sheep kidneys (trend towards higher serum creatinine and urea levels): worsened renal function
Sheep kidneys; 10.0 mg/kg of body weight
  inhibition of ischaemia-reperfusion injury, as measured by serum creatinine and urea levels: failed to inhibit
Sheep kidneys; 10.0 mg/kg of body weight, listed as ZnCl
  adverse effects of ischaemia-reperfusion in sheep kidneys (trend towards higher serum creatinine and urea levels): appeared to worsen
Sheep kidneys; 10.0 mg/kg of body weight, listed as zinc
  adverse effects of ischaemia-reperfusion in sheep kidneys (trend towards higher serum creatinine and urea levels): worsened renal function
Sheep kidneys; greater than or equal to 1 mg/kg of body weight, intravascular
  renal function following ischaemia-reperfusion injury, as determined by serum creatinine and serum urea levels: did not improve renal function
Sheep kidneys; two doses of 0.5 mg/kg at 24 and 4 hr prior to ischaemia, compared to single dose at either 24 hr or 4 hr, p<0.05, 0.5 mg/kg
  creatinine rise over time: significantly (p<0.05) reduced
HIF-2α [10]
  HIF-2α protein expression: increase
HIF-2α [10]; listed as zinc
  HIF-2α protein expression: stimulated
HIF-1α [11]
  HIF-1α protein expression: increase
HIF-1α [11]; listed as Zinc chloride
  HIF-1α protein expression: enhanced
HIF-1α [11]; listed as Zn
  HIF-1α protein expression: stimulated
HIF-1α [11]; listed as zinc
  HIF-1α protein expression: stimulates
HIF-3α [12]
  HIF-3α protein expression: not
[13]; dual doses of 0.5 mg/kg ZnCl2 at 24 hours and 4 hours prior to 1 hour ischemia and 3 hour reperfusion
  infarct in the area of myocardium at risk: no histological signs of an infarct
[13]; dual doses of 0.5 mg/kg ZnCl2 at 24 hours and 4 hours prior to myocardial ischaemia, compared to untreated sheep, 0.5 mg/kg
  white (infarcted) areas after TTC staining of left ventricle rings: very little white staining; also recorded: Absence of white areas

## [O]=[Zn] [zinc oxide]
ferrets
  lethality (ferrets dead of ferrets dosed): 3 of 3
